Assay results from patent publication US20210187014A1 (The Regents of the University of Colorado, a body corporate, priority 2018, published 2021).
Square brackets hold non-standard residues; d marks the D form. Peptide text beside a SMILES is read from it. Orn(N5-OH,N5-Ac) = CC(=O)N(O)CCC[C@H](N)C(=O)O

How the values were obtained:
C. elegans [1] = experiment: C. elegans larval growth assay: heat-killed E. coli plus trace live E. coli, worm volume; format: in vivo; settings: for worm growth with dietary supplementation: worms fed heat-killed E. coli plus live entA- or entF- mutant E. coli (Ent-deficient food)
Source text: In one embodiment of the inventive technology, the present inventors created a unique assay to facilitate the identification of microbial metabolites that benefit growth and development of host animals. […] This unique feeding condition was used to search for E. coli mutants that fail to support normal worm growth, potentially due to their inability to provide specific metabolites to benefit host animals.
E. coli Keio collection screen. Preparation of heat-killed (HK) OP50 plates followed the procedure described previously (Qi et al., 2017). Standard overnight culture of E. coli OP50 grown in LB broth was concentrated to 1/10 vol and was then heat-killed in a 75° C. water bath for 90 min. The 150 µl of the HK-OP50 was spread onto one side of NGM plate. For preparation of bacterial mutant assay plates, E. coli Keio (Baba et al., 2006) mutants were grown overnight at 37° C. in LB medium with […] kanamycin. 0.2 uL of the bacterial culture (OD600) were seeded to the other side of HK OP50 plate. About 300 synchronized L1 worms were added to the screen plate, and cultured at 20° C., then scored for worm size at day 3 and day 4. The entire library was used for the primary screen; each bacterial mutant was screened once. For the secondary screen, 200 candidate mutants were screened (3 replicates) to confirm the slow growth phenotype.
Chemical supplementation of culture plates. For chemical supplementation, each chemical was dissolved in water or DMSO to generate a stock. The stock solution was added to HK OP50 and then spotted onto NGM plates. […] For CaEDTA supplementation (Kiang et al., 2014), 50 ul of CaEDTA (50 ug/ul) was spread onto the center of the NGM plates seeded with OP50, then different volume of the FeCl3[175 ug/ul] […] Bacterial growth analyses. Overnight cultures were diluted to a final OD600=0.01 in 200 μL of NGM liquid medium. Bacteria were grown in 96-well plates with shaking in a Synergy2 plate reader (BioTek) at 37° C. for 17 h. The OD600 was recorded at 20 min intervals.
Analysis of larval growth by measuring worm size. Synchronized L1 worms were seeded on the indicated NGM plate and grew to the indicated times. Photos were taken and worms volume in each photo were measured by WormSizer software (Moore et al., 2013).

[2] = Stability by NGAL fluorescence assay; format: physicochemical; settings: same concentration and buffers, room temp, light
Source text: FIG. 25. […] Degradation is indicated by increased absorbance. […] Degradation is indicated by increased relative fluorescence. […] For all tests, dilutions were kept at room temp and exposed to light. Error is standard deviation of the mean.

[3] = system: C. elegans smf-3/DMT1 mutant; experiment: Growth of iron-deficient C. elegans smf-3/DMT1(-) mutant with iron chelator 2,2'-bipyridyl; format: in vivo
Protocol: FIG. 26. […] All tests were done on a smf-3/DMT1(-) mutant strain in a culture media where an iron chelator (2,2′-bipyridyl) was added to reduce the environmental iron level (FIG. 26A). […] This growth delay was rescued by supplementation with Ent, scored as the percentage of the population at the indicated growth stage. […] The entP,fepA: E. coli mutant cannot synthesize or utilize Enterobactin.
SMF-3/DMT1 is a conserved divalent metal transporter that transports iron into intestinal cells. The smf-3/DMT1 mutant has been established as an iron deficiency model in C. elegans. These mutants have defective iron uptake that results in iron deficiency (Romney et al 2011) and delayed growth under iron-poor growth conditions created by addition of an iron chelator (2,2′-bipyridyl) to the culture media (Raj an et al 2019).
To determine if the Enterobactin supplementation was benefiting the worm directly or benefiting the worm through an E. coli-dependent mechanism, the test was repeated using an E. coli double mutant that cannot synthesize or utilize Ent (entP,fepk).

MEL cells = experiment: Erythroid differentiation of MEL cells (color change of cell pellets); format: cell-based, murine; settings: equimolar supplementation
Protocol: FIG. 27. Ferric Enterobactin supplementation benefits differentiation of erythroid progenitor cells (MEL) to red blood cells. (FIG. 27A) MEL cells were grown with the indicated treatments. Cell pellets are shown. (FIG. 27B) Quantification of MEL color change presented as the average intensity of each cell pellet, normalized to the intensity of the control. Error bars are the standard deviation of three technical replicates.
MEL cells are murine erythroid progenitor cells that are arrested at the proerythroblast stage. In the laboratory, these cells are induced to undergo erythroid differentiation to red blood cells by addition of various chemicals (e.g. 2% DMSO) (Friend, 1971). Erythroid differentiation is an iron-dependent process that results in a color change in the differentiated cells. The present inventors tested if addition of Fe-Ent would positively impact the differentiation of wild-type MEL cells to red blood cells.

C. elegans [4] = experiment: Iron level in live worms by calcein-AM staining (and pftn-2::GFP reporter); format: in vivo
Protocol: The present inventors employed the commonly used fluorescent cell-permeable dye, calcein AM, of which emission is quenched by iron binding, and applied it to live worms as previously described to estimate the overall iron level in the host.
Live imaging of iron in worms was done as previously described (James et al., 2015). Briefly, worms were collected at different culture conditions, then co-cultured in M9 with 0.05 ug/ML calcein-AM (Invitrogen) for 1 h, then washed 3 times in 1 ml M9. Samples were then mounted for fluorescence microscopy.
For calcein-AM staining, the original images taken with GFP channel were used to measure the intensity. The value of staining intensity was determined by subtracting the background intensity from the calcein-AM stained intestine.

C. elegans [5] = experiment: Siderophore toxicity test: worm growth and mitochondrial morphology (mtGFP); format: in vivo; settings: for defects in growth or mitochondrial morphology: solid medium, worms fed wild-type E. coli
Source text: FIG. 8. Bacterial enterobactin promotes C. elegans development. […] (8E) The entA- and entF-mutant E. coli strains colonized the host gut as efficiently as the parental wild-type strain. (FIG. 8F) Cartoon diagram of feeding condition, microscope images and bar graph showing that neither pyoverdine nor ferrichrome caused obvious growth defects in worms fed heat-killed food plus wild-type, live E. coli. (FIG. 8G) Fluorescence microscopy of worms containing mtGFP under the same feeding condition as in (FIG. 8F). […] “n” =number of worms scored. Data are represented as mean±SEM. ***P<0.0001.

O=C(O)c1cccc(O)c1O [2,3-DHBA, 2,3-dihydroxybenzoic acid]
worm growth with dietary supplementation (C. elegans [1]): rescued worm growth on entA- but not entF-E. coli

O=C(N[C@H]1COC(=O)[C@@H](NC(=O)c2cccc([O-])c2[O-])COC(=O)[C@@H](NC(=O)c2cccc([O-])c2[O-])COC1=O)c1cccc([O-])c1[O-].[Fe+3] [Fe-Ent, ferric enterobactin]
stability of Ent versus Fe-Ent [2]: more stable than Ent alone
growth of smf-3(-) mutants ([3]; E. coli double mutant that cannot synthesize or utilize Ent): independent of E. coli
growth of smf-3(-) mutants ([3]; iron chelator 2,2'-bipyridyl in media): faster and to a greater extent than observed for Enterobactin or FeCl3 supplementation alone
MEL differentiation to red blood cells (MEL cells): increase in MEL differentiation, and this increase was better than supplementation with equimolar FeCl3 alone

[Cl][Fe]([Cl])[Cl] [FeCl3, ferric chloride, reference compound]
worm growth (C. elegans [1]; ferric chloride added to live wild-type E. coli, with heat-killed E. coli): worm growth defect
worm growth with dietary supplementation (C. elegans [1]): neither suppressed the growth defect
cellular iron level (C. elegans [4]; animals fed Ent-deficient food): nor raised cellular iron level
iron level and growth rate defects (C. elegans [4]; iron-deficient condition, worms treated with CaEDTA): both defects were suppressed

CC(=O)N([O-])CCC[C@@H]1NC(=O)CNC(=O)CNC(=O)CNC(=O)[C@H](CCCN([O-])C(C)=O)NC(=O)[C@H](CCCN([O-])C(C)=O)NC1=O.[Fe+3] [ferrichrome] (cyclo(GGG[Orn(N5-OH,N5-Ac)][Orn(N5-OH,N5-Ac)][Orn(N5-OH,N5-Ac)]))
worm growth with dietary supplementation (C. elegans [1]): failed to generate a similar impact on worm growth
defects in growth or mitochondrial morphology (C. elegans [5]): no obvious defects

hemin
worm growth with dietary supplementation (C. elegans [1]): did not impact animal growth

pyoverdine
worm growth with dietary supplementation (C. elegans [1]): failed to generate a similar impact on worm growth
mitochondrial morphology (mtGFP) (C. elegans [5]; liquid culture): toxic to worms as it damages host mitochondria
defects in growth or mitochondrial morphology (C. elegans [5]): no obvious defects
